Source: ChEMBL document CHEMBL1154763, “Antitrypanosomal activity of 1,2-dihydroquinolin-6-ols and their ester derivatives” (J Med Chem, 2010)
Activity calls are given as the source filed them. The calls are words filed in the database; no cut-off is given here.

Key:
[1] = test system: Trypanosoma brucei rhodesiense; test: Antitrypanosomal activity against bloodstream Trypanosoma brucei rhodesiense STIB 900 after 70 hrs by alamar blue assay; format: functional, organism-based; conditions: STIB 900, 70 h
L6 = test: Cytotoxicity against rat L6 cells after 70 hrs by alamar blue assay; format: cell-based; conditions: L6, 70 h
[2] = Selectivity index, ratio of IC50 for rat L6 cells to IC50 for bloodstream Trypanosoma brucei rhodesiense STIB 900; format: toxicity, cell-based; conditions: read-out: Ratio IC50
[3] = test system: Trypanosoma brucei brucei; test: Induction of reactive oxygen species generation in Trypanosoma brucei brucei MITat1,2,variant 221 at 1 uM preincubated for 24 hrs by CM-H2DCFDA fluorescence assay
[4] = test system: Trypanosoma brucei brucei; test: Induction of reactive oxygen species generation in Trypanosoma brucei brucei MITat1,2,variant 221 at 10 uM preincubated for 24 hrs by CM-H2DCFDA fluorescence assay
[5] = test system: Trypanosoma brucei brucei; test: Induction of reactive oxygen species generation in Trypanosoma brucei brucei MITat1,2,variant 221 at 0.1 uM preincubated for 24 hrs by CM-H2DCFDA fluorescence assay
[6] = test system: Trypanosoma brucei brucei; test: Antitrypanosomal activity against Trypanosoma brucei brucei STIB 795 infected in NMRI mouse African trypanosomiasis model assessed as parasite free mouse survival at 10 mg/kg, ip qd administered for 4 consecutive days from day 3 to 6 postinfection measured up to 30 days; conditions: STIB795
[7] = test system: Trypanosoma brucei brucei; test: Induction of reactive oxygen species generation in Trypanosoma brucei brucei MITat1,2,variant 221 preincubated for 24 hrs by CM-H2DCFDA fluorescence assay
Mus musculus = test: Toxicity in Trypanosoma brucei STIB795 infected in NMRI mouse African trypanosomiasis model assessed as overt signs of at 50 mg/kg, ip qd administered for 4 consecutive days from day 3 to 6 postinfection measured up to 30 days; conditions: in vivo, 720 h
[8] = test system: Trypanosoma brucei brucei; test: Antitrypanosomal activity against Trypanosoma brucei brucei STIB 795 infected in NMRI mouse African trypanosomiasis model assessed as parasite free mouse survival at 50 mg/kg, ip qd administered for 4 consecutive days from day 3 to 6 postinfection measured up to 30 days

Row | SMILES | IC50 [1] [µM] | IC50 (L6; read-out: IC50) [µM] | selectivity ratio [2] | further results
1 | CC1=CC(C)(C)N(Cc2ccncc2)c2ccc(O)cc21 | 0.34 | 13 | 39 | 
2 | CC(=O)Oc1ccc2c(c1)C(C)=CC(C)(C)N2Cc1cccc(C)c1 | 0.34 | 28 | 82 | 
3 | CCCCCCCC(=O)Oc1ccc2c(c1)C(C)=CC(C)(C)N2Cc1ccccc1 | 0.017 | 220 | 13000 | 
4 | CC1=CC(C)(C)Nc2ccc(OCc3ccc(C(F)(F)F)cc3)cc21 | 4.5 | 48 | 11 | 
5 | CC1=CC(C)(C)N(Cc2ccccc2)c2ccccc21 | 57 | 110 | 2 | Activity [3]: inactive; Activity [4]: inactive; Activity [5]: inactive
6 | CC1=CC(C)(C)N(Cc2ccccc2)c2ccc(OC(=O)C3CCCCC3)cc21 | 0.028 | > 230 | > 8200 | 
7 | COc1cc(COc2ccc3c(c2)C(C)=CC(C)(C)N3)cc(OC)c1 | 13 | 68 | 5 | 
8 | CC(=O)Oc1ccc2c(c1)C(C)=CC(C)(C)N2Cc1ccc(Cl)c(Cl)c1 | 0.053 | 28 | 530 | 
9 | COc1cc(OC)cc(C(=O)Oc2ccc3c(c2)C(C)=CC(C)(C)N3Cc2ccccc2)c1 | 0.023 | 24 | 1000 | 
10 | COc1cc(OC)cc(C(=O)Oc2ccc3c(c2)C(C)=CC(C)(C)N3Cc2ccc(Cl)cc2)c1 | 0.048 | > 190 | > 3900 | 
11 | COc1cccc(COc2ccc3c(c2)C(C)=CC(C)(C)N3Cc2cccc(OC)c2)c1 | 63 | > 210 | > 3 | 
12 | COc1cc(OC)cc(C(=O)Oc2ccc3c(c2)C(C)=CC(C)(C)N3Cc2ccc(C)cc2)c1 | 0.033 | > 200 | > 6000 | 
13 | N=C(N)c1ccc(/N=N/Nc2ccc(C(=N)N)cc2)cc1 |  |  |  | Activity [6]: Active
14 | CC1=CC(C)(C)Nc2ccc(OC(=O)c3ccc4c(c3)OCO4)cc21 | 0.3 | 29 | 99 | 
15 | CC1=CC(C)(C)Nc2ccc(OCCc3ccccc3)cc21 | 3.7 | 83 | 22 | 
16 | CC(=O)Oc1ccc2c(c1)C(C)=CC(C)(C)N2Cc1ccc(C#N)cc1 | 0.26 | 29 | 110 | 
17 | CC1=CC(C)(C)N(Cc2ccccn2)c2ccc(O)cc21 | 1.1 | 18 | 17 | 
18 | CC1=CC(C)(C)N(Cc2cccc(C(F)(F)F)c2)c2ccc(OCc3cccc(C(F)(F)F)c3)cc21 | 3.6 | > 180 | > 50 | 
19 | Nc1nc(N)nc(Nc2ccc([As]3SCC(CO)S3)cc2)n1 (stereo not drawn) [MELARSOPROL] | 0.008 | 7.9 | 1000 | 

Row | SMILES | IC50 [1] [µM] | IC50 (L6; read-out: IC50) [µM] | selectivity ratio [2] | further results
20 | CC1=CC(C)(C)N(Cc2ccccc2)c2ccc(OC(=O)C(C)(C)C)cc21 | 0.028 | 170 | 6000 | 
21 | CC(=O)Oc1ccc2c(c1)C(C)=CC(C)(C)N2Cc1ccccc1 | 0.014 | 24 | 1700 | Activity [7]: Dose-dependent effect; Activity (Mus musculus): Non-toxic; Survival ([8]; route intraperitoneal): >14 days
22 | COc1ccc(CN2c3ccc(OC(C)=O)cc3C(C)=CC2(C)C)cc1 | 0.048 | 15 | 310 | 
23 | CC(=O)Oc1ccc2c(c1)C(C)=CC(C)(C)N2C | 1.4 | 41 | 29 | 
24 | CC(=O)Oc1ccc2c(c1)C(C)=CC(C)(C)N2Cc1cccc(Cl)c1 | 0.039 | 29 | 740 | 
25 | CC(=O)Oc1ccc2c(c1)C(C)=CC(C)(C)N2Cc1ccc(F)cc1 | 0.041 | 29 | 710 | Activity (Mus musculus): Non-toxic; Survival ([8]; route intraperitoneal): 8.75 days
26 | CC1=CC(C)(C)Nc2ccc(OCc3cccc(C(F)(F)F)c3)cc21 | 8.8 | 45 | 5 | 
27 | CC1=CC(C)(C)Nc2ccc(OC(=O)c3cccc(C(=O)Oc4ccc5c(c4)C(C)=CC(C)(C)N5)c3)cc21 | < 0.008 | 63 | > 7800 | 
28 | COc1cc([C@@H]2c3cc4c(cc3[C@H](O)[C@H]3COC(=O)[C@H]23)OCO4)cc(OC)c1OC [PODOFILOX] |  |  |  | IC50 (L6): 0.012 µM
29 | COc1cccc(COc2ccc3c(c2)C(C)=CC(C)(C)N3)c1 | 11 | 61 | 5 | 
30 | COc1cc(OC)cc(C(=O)Oc2ccc3ncccc3c2)c1 | 89 | 200 | 2 | 
31 | COc1cc(OC)cc(C(=O)Oc2ccc3c(c2)C(C)=CC(C)(C)N3)c1 | 0.054 | 16 | 300 | Survival [8]: inactive
32 | CC1(C)C=Cc2cc(O)ccc2N1Cc1ccccc1 | 0.13 | 5.5 | 42 | 
33 | CC(=O)Oc1ccc2c(c1)C(C)=CC(C)(C)N2Cc1ccc(C(C)(C)C)cc1 | 0.67 | 9 | 13 | 
34 | CC1=CC(C)(C)N(Cc2ccc(C(F)(F)F)cc2)c2ccc(OCc3ccc(C(F)(F)F)cc3)cc21 | 86 | > 180 | > 2 | 
35 | CC1=CC(C)(C)N(Cc2ccc(C)cc2)c2ccc(O)cc21 | 0.058 | 8.1 | 140 | 
36 | CC1=CC(C)(C)N(Cc2ccccc2)c2ccc(OC(=O)c3ccccc3)cc21 | 0.013 | > 240 | > 18000 | 
37 | CC(=O)Oc1ccc2c(c1)C(C)=CC(C)(C)N2Cc1cccc(C(F)(F)F)c1 | 0.041 | 27 | 660 | 
38 | CC1=CC(C)(C)N(Cc2ccc(Cl)cc2)c2ccc(O)cc21 | 0.061 | 7.9 | 130 | 

Row | SMILES | IC50 [1] [µM] | IC50 (L6; read-out: IC50) [µM] | selectivity ratio [2] | further results
39 | CC(=O)Oc1ccc2c(c1)C(C)=CC(C)(C)N2Cc1cccc(C#N)c1 | 0.18 | 31 | 170 | Activity (Mus musculus): Non-toxic; Survival ([8]; route intraperitoneal): 9.25 days
40 | COc1cc(CN2c3ccc(OC(C)=O)cc3C(C)=CC2(C)C)cc(OC)c1 | 0.1 | 25 | 240 | 
41 | COc1cc(CN2c3ccc(O)cc3C(C)=CC2(C)C)cc(OC)c1 | 0.14 | 11 | 83 | 
42 | CC(=O)Oc1ccc2c(c1)C(C)=CC(C)(C)N2C(C)=O | 5.3 | 160 | 29 | 
43 | COc1ccc(COc2ccc3c(c2)C(C)=CC(C)(C)N3)cc1 | 5.2 | 77 | 15 | 
44 | CC1=CC(C)(C)N(Cc2ccccc2)c2ccc(OC(=O)Cc3ccccc3)cc21 | 0.015 | 160 | 11000 | 
45 | COc1ccc(CN2c3ccc(O)cc3C(C)=CC2(C)C)cc1 | 0.17 | 6.2 | 37 | 
46 | CC1=CC(C)(C)Nc2ccc(OCc3ccccc3)cc21 | 4.1 | 56 | 14 | 
47 | CC(=O)Oc1ccc2c(c1)C(C)=CC(C)(C)N2Cc1ccc(C(F)(F)F)cc1 | 0.36 | 14 | 39 | 
48 | CC1=CC(C)(C)Nc2ccc(O)cc21 | 0.78 | 18 | 23 | 
49 | COc1ccccc1COc1ccc2c(c1)C(C)=CC(C)(C)N2 | 5.3 | 48 | 9 | 
50 | O=C(Oc1ccc2ncccc2c1)c1ccc2c(c1)OCO2 | 80 | 40 | 0.5 | 
51 | CC(=O)Oc1ccc2c(c1)N(Cc1ccccc1)C(C)(C)C=C2C | 4.4 | 71 | 16 | Activity [3]: inactive; Activity [4]: inactive; Activity [5]: inactive
52 | CC1=CC(C)(C)N(Cc2ccccc2)c2ccc(O)cc21 | 0.007 | 6.8 | 970 | 
53 | COc1cc(CN2c3ccc(OC(C)=O)cc3C=CC2(C)C)cc(OC)c1 | 0.2 | 10 | 50 | 
54 | COc1cccc(CN2c3ccc(OC(C)=O)cc3C(C)=CC2(C)C)c1 | 0.32 | 29 | 91 | 
55 | CC(=O)Oc1ccc2c(c1)C(C)=CC(C)(C)N2Cc1ccc(Cl)cc1 | 0.18 | 22 | 120 | 
56 | CC(=O)Oc1ccc2c(c1)C(C)=CC(C)(C)N2Cc1ccc(C)cc1 | 0.39 | 21 | 54 | 
